From patent US12234229B2, “Sphingosine kinase inhibitor amidoxime prodrugs” (University of Virginia Patent Foundation, priority 2016, dated 2025)

Key:
[1] = tested on: sphingosine kinase type 2 (SphK2); test: Blood sphingosine 1-phosphate (S1P) in mice after oral dosing, LC-MS-MS; type: in vivo; settings: C57Bl/6 mice, oral gavage 20 mg/kg, blood drawn immediately, at 2 h, 6 and 24 h, FIG. 1A
Method: FIGS. 1A-1B. Four C57Bl/6 mice were dosed by oral gavage with 20 mg/kg of Compound 6. At the indicated times, blood was drawn, whole prepared for analysis, and the amount sphingosine 1-phosphate (S1P) was quantified by LC-MS-MS (FIG. 1A). The rise in S1P is indicative of inhibition of sphingosine kinase type 2 (SphK2).
Four C57Bl/6 mice were dosed by oral gavage with 20 mg/kg of Compound 6 (Example 113). Blood was drawn immediately, at 2h, 6, and 24 h after administration, whole prepared for analysis, and the amount of sphingosine 1-phosphate (S1P) was quantified by LC-MS-MS, as shown in FIG. 1A.

[2] = target: T1, human sphingosine kinase type 2 (hSPHK2) (Homo sapiens, UniProt Q9NRA0); test: Sphingosine kinase assay, recombinant human SPHK2 ([32P]S1P product, scintillation counting); type: biochemical; settings: read-out: activity hSPHK2 (range estimates of KI values)
T1 construct: purchased; host or cells: Sf9 insect cells (baculovirus)
T1 sequence (Q9NRA0 1-654): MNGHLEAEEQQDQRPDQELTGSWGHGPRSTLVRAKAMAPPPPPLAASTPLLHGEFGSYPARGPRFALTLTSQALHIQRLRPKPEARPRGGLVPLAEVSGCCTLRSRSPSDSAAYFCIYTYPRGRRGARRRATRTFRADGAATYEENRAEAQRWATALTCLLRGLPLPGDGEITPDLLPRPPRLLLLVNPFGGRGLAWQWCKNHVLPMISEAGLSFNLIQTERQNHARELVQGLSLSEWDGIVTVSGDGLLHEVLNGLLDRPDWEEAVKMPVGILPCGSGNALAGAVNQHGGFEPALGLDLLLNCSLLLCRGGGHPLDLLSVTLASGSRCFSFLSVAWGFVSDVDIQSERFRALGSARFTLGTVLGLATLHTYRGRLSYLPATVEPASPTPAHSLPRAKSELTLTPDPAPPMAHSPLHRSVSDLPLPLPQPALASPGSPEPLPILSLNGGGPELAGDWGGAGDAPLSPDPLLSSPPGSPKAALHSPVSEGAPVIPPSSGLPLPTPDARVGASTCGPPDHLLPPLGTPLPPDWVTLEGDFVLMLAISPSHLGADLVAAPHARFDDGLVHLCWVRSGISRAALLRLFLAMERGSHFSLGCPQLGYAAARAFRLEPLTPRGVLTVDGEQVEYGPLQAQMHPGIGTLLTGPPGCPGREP
Method: (§1) Recombinant baculovirus encoding human sphingosine kinase type 1 (SPHK1) was used to infect Sf9 insect cells and after 2-5 days, cleared lysates were prepared and used without further purification. Human SPHK2, which was partially purified from baculovirus-infected Sf9 cell lysates, was purchased from a commercial source. Sphingosine kinase assays were performed using standard protocols. Product [^32P]S1P was recovered by binding to cation exchange paper and quantified by scintillation counting.

[3] = target: T2, human sphingosine kinase type 1 (hSPHK1) (Homo sapiens, UniProt Q9NYA1); test: Sphingosine kinase assay, recombinant human SPHK1 ([32P]S1P product, scintillation counting); type: biochemical; settings: read-out: activity hSPHK1 (range estimates of KI values)
T2 construct: made in house; host or cells: Sf9 insect cells (baculovirus)
Method: as §1

[4] = patients, 1-yr trial; cited from earlier work

T2 sequence (Q9NYA1 whole entry): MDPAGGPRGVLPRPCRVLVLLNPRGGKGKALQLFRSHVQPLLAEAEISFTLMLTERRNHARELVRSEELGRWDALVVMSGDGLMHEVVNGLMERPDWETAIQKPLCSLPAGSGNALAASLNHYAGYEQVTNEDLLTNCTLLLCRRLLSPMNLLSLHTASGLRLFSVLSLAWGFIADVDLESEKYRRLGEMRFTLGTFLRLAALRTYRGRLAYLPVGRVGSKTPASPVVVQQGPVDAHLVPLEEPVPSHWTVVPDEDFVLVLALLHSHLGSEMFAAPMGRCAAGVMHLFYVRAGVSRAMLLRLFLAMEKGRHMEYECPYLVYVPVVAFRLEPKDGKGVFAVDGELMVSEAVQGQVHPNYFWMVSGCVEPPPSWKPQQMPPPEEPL

Row | SMILES | Ki [2] [µM] | further results
1 | CCCCCCCCOc1ccc(-c2noc([C@@H]3[C@@H](O)CCN3/C(N)=N/O)n2)cc1C(F)(F)F [Compound 6, (2S,3S)—N,3-dihydroxy-2-(3-(4-(octyloxy)-3-(trifluoromethyl)phenyl)-1,2,4-oxadiazol-5-yl)pyrrolidine-1-carboximidamide] | – | amount of sphingosine 1-phosphate (S1P) in blood [1]: rise in S1P
2 | CCCCCCCCOc1ccc(-c2noc([C@@H]3[C@@H](O)CCN3C(=N)N)n2)cc1C(F)(F)F [Compound 6A, amino((2S,3S)-3-hydroxy-2-(3-(4-(octyloxy)-3-(trifluoromethyl)phenyl)-1,2,4-oxadiazol-5-yl)pyrrolidin-1-yl)methaniminium chloride] | < 1 | –
3 | CCCCCCCCCn1ccc2cc(-c3noc([C@@H]4CCCN4C(=N)N)n3)ccc21 [Compound 17A, (S)-amino(2-(3-(1-nonyl-1H-indol-5-yl)-1,2,4-oxadiazol-5-yl)pyrrolidin-1-yl)methaniminium chloride] | < 1 | –
4 | C=COCc1ccc(-c2noc([C@@H]3CCCN3C(=N)N)n2)cc1C(F)(F)F [Compound 77A] | > 10 | Ki [3]: > 10 µM
5 | CCCCCCCCc1ccc(CCC(N)(CO)CO)cc1 [fingolimod, 2-amino-2-[2-(4-octylphenyl)ethyl] propane 1,3-diol] | – | hypertension (blood pressure rise) [4]: 2-3 mmHg
